The record followed here is patent publication US20250145600A1, “2-((4-((S)-2-(4-CHLORO-2-FLUOROPHENYL)-2-METHYLBENZO[D][1,3]DIOXOL-4-YL)PIPERIDIN-1-YL)METHYL)-1-(((S)-OXETAN-2-YL)METHYL)-1H-IMIDAZOLE DERIVATIVES AS ACTIVATORS OF THE GLP1 RECEPTOR FOR THE TREATMENT OF OBESITY” (Novartis AG, priority 2022, published 2025).

This assay has as its target human GLP1R (hGLP1R) (Homo sapiens, UniProt P43220). Briefly: Human GLP1R cAMP agonist assay (GloSensor cAMP Assay). It is filed as cell-based. The conditions noted are these: HEK293-SNAP-hGLP1R-GloSensor cells; for Emax: cAMP activity as percent of GLP1 (7-36) EC100 control; for EC50: intracellular cAMP, 12 min at rt. On the procedure: Compounds of formula (I) according to the invention were tested in the following cellular assays that measure the intracellular cAMP concentration, beta-arrestin recruitment and receptor internalization. The cAMP is generated by the activation of GLP1R. The extent to which the GLP1R is internalized into the cell and away from the plasma membrane following activation is also shown in Table 2. EC50 for each assay is defined as the concentration of the compound that leads to half of the maximum response (after baseline correction). Emax is defined as the maximum response observed for the test compound, normalized to the maximum response observed for the endogenous ligand (GLP1(7-36)) to GLP1R.
Human GLP1R cAMP Agonist Assay
The agonist activity of compounds was determined using the GloSensor™ cAMP Assay (Promega Corp.), which measures changes in the intracellular concentration of cAMP after ligand activation of GPCRs. The assay uses a biosensor encoded by pGloSensor™-22F cAMP plasmid (Promega, cat #E2301) with cAMP binding domains fused to a mutant form of Photinus pyralis luciferase. Binding to cAMP causes conformational changes that promote large increases in light output, which can be measured by a luminescence detector. HEK293-SNAP-hGLP1R-GloSensor cells stably overexpressing the human GLP1 receptor (hGLP1R) and pGloSensor™-22F were seeded in white 384-well poly-D-Lysine coated plates (Greiner Bio One, cat #781945) in CO2-independent media (Gibco cat #18045-088 with 1.0% FBS, 2 mM L-glutamine, penicillin and streptomycin) and incubated overnight at 37° C., 5% CO2 with humidity. The assay was started the following morning by adding an equal volume of CO2-independent media containing 4% v/v dilution of the GloSensor substrate (Promega, cat #E1291) to all wells. The cell plate was incubated at rt for 2 h in the dark. The Biomek 7 (Beckman Coulter) instrument was used for the liquid handling steps. To generate duplicate dose response curves, 3-fold serially diluted compounds were added in to the cell assay plate to a final volume of 60 μL with final concentrations ranging from 30 μM through 0.06 μM in CO2-independent media containing 0.1% BSA, 0.5 mM IBMX and 0.4% DMSO. In the same plate and assay buffer as the tested compounds, were EC100 control wells containing GLP1 (7-36) peptide (Bachem, cat #H-6795) at a final concentration of 2 nM and also EC0 control wells containing no peptide. This plate was incubated at rt in the dark for 12 min after adding the compounds to the cells. Luminescence was then measured with an Envision 2104 Multilabel reader with “TRF Light Unit, 337 nm” (PerkinElmer) using the Ultra-Sensitive protocol setting “384-well US luminescence detector” with the 384-well luminescence aperture, 0.1 seconds per well. cAMP activity was calculated as percent of the GLP1 (7-36) EC100 control wells: [(sample signal−mean EC0 signal)/(mean EC100 of GLP1 (7-36) signal−mean EC0 signal)}*100. Curve fitting for EC50 determinations was performed in the Helios module of the software package DAVID. The 4-parameter logistic model, Hill slope was used: y=Ainf+(A0−Ainf)/(1+(x/AC50)^Hill Slope) where y is the functional response; x is the compound concentration; A0 is the minimum value (at 0 dose); Ainf is the maximum value (at infinite dose); AC50 corresponds to the point of inflection (i.e. the point on the sigmoid shaped curve halfway between A0 and Ainf). The EC50 value was represented by the AC50 value calculated from Helios in μM. Emax is the maximal activity detected within the concentration range, derived from the fitted curve.
327 μL of Opti-MEM medium (Gibco, cat #31985-062) were mixed with 12 μL of FuGENE® HD (Promega, cat #E2311) and incubated at rt for 5 min. Then 8.2 μL (4 μg, 0.485 μg/μL solution) of pSNAP-hGLP1R plasmid (Cisbio, cat #PSNAP-GLP1) encoding human GLP1R (NCBI Reference Sequence: NM_002062.3) fused with Cisbio's SNAP tag was added in to the Fugene HD/Opti-MEM mix, and incubated at rt for 20 min. […]

human GLP1R (hGLP1R), sequence (P43220 24-463): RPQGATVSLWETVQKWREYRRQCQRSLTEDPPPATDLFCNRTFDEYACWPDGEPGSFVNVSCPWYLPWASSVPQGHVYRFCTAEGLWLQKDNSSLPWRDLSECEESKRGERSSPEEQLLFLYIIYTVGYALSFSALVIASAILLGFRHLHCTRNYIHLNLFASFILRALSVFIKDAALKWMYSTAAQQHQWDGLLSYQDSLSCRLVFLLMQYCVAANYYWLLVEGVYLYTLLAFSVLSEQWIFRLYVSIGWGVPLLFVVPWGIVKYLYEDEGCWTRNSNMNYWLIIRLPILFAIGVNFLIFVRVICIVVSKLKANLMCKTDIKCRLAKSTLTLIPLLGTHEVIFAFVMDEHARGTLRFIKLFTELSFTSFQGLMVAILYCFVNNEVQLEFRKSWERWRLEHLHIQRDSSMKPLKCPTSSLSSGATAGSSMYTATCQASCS

In turn, `Cc1nc(CN2CCC(c3cccc4c3O[C@@](C)(c3ccc(Cl)cc3F)O4)CC2)n(C[C@H]2CCO2)c1-c1ncc(C(=O)O)o1` [Compound C-2, 2-(2-((4-((S)-2-(4-chloro-2-fluorophenyl)-2-methylbenzo[d][1,3]dioxol-4-yl)piperidin-1-yl)methyl)-4-methyl-1-(((R)-oxetan-2-yl)methyl)-1H-imidazol-5-yl)oxazole-5-carboxylic acid] gave an Emax of 108% and an EC50 of 0.149 nM.

In turn, `Cc1nc(CN2CCC(c3cccc4c3O[C@@](C)(c3ccc(Cl)cc3F)O4)CC2)n(C[C@H]2CCO2)c1-c1nc(C(=O)O)co1` [Compound C-3, 2-(2-((4-((S)-2-(4-chloro-2-fluorophenyl)-2-methylbenzo[d][1,3]dioxol-4-yl)piperidin-1-yl)methyl)-4-methyl-1-(((R)-oxetan-2-yl)methyl)-1H-imidazol-5-yl)oxazole-4-carboxylic acid] came in with an Emax of 105% and an EC50 of 0.0484 nM.

`CCc1nc(CN2CCC(c3cccc4c3O[C@@](C)(c3ccc(Cl)cc3F)O4)CC2)n(C[C@@H]2CCO2)c1-c1ncc(C(=O)O)o1` [Compound C-6, 2-(2-((4-((S)-2-(4-chloro-2-fluorophenyl)-2-methylbenzo[d][1,3]dioxol-4-yl)piperidin-1-yl)methyl)-4-ethyl-1-(((S)-oxetan-2-yl)methyl)-1H-imidazol-5-yl)oxazole-5-carboxylic acid] registered an Emax of 123% and an EC50 of 0.464 nM.

On to `CCc1nc(CN2CCC(c3cccc4c3O[C@@](C)(c3ccc(Cl)cc3F)O4)CC2)n(C[C@H]2CCO2)c1-c1ncc(C(=O)O)o1` [Compound C-8, 2-(2-((4-((S)-2-(4-chloro-2-fluorophenyl)-2-methylbenzo[d][1,3]dioxol-4-yl)piperidin-1-yl)methyl)-4-ethyl-1-(((R)-oxetan-2-yl)methyl)-1H-imidazol-5-yl)oxazole-5-carboxylic acid], for which the Emax is 101% and the EC50 is 0.353 nM.

`Cc1nc(CN2CCC(c3cccc4c3O[C@@](C)(c3ccc(C#N)cc3F)O4)CC2)n(C[C@@H]2CCO2)c1-c1nc(C(=O)O)c(C)o1` [Compound C-11, 2-(2-((4-((S)-2-(4-cyano-2-fluorophenyl)-2-methylbenzo[d][1,3]dioxol-4-yl)piperidin-1-yl)methyl)-4-methyl-1-(((S)-oxetan-2-yl)methyl)-1H-imidazol-5-yl)-5-methyloxazole-4-carboxylic acid] yielded an Emax of 105% and an EC50 of 0.0428 nM.

Consider `Cc1nc(-c2nc(CN3CCC(c4cccc5c4O[C@@](C)(c4ccc(Cl)cc4F)O5)CC3)n(C[C@@H]3CCO3)c2C)oc1C(=O)O` [Compound C-15, 2-(2-((4-((S)-2-(4-chloro-2-fluorophenyl)-2-methylbenzo[d][1,3]dioxol-4-yl)piperidin-1-yl)methyl)-5-methyl-1-(((S)-oxetan-2-yl)methyl)-1H-imidazol-4-yl)-4-methyloxazole-5-carboxylic acid], for which the Emax came to 103% and the EC50 came to 0.112 nM.

Turning to `Cc1nc(CN2CCC(c3cccc4c3O[C@@](C)(c3ccc(Cl)cc3F)O4)CC2)n(C[C@@H]2CCO2)c1-c1ccc(C(=O)O)o1` [Compound C-22, 5-(2-((4-((S)-2-(4-chloro-2-fluorophenyl)-2-methylbenzo[d][1,3]dioxol-4-yl)piperidin-1-yl)methyl)-4-methyl-1-(((S)-oxetan-2-yl)methyl)-1H-imidazol-5-yl)furan-2-carboxylic acid], the Emax was 119% and the EC50 stood at 0.35 nM.

`Cc1c(-c2cncc(C(=O)O)c2)nc(CN2CCC(c3cccc4c3O[C@@](C)(c3ccc(Cl)cc3F)O4)CC2)n1C[C@@H]1CCO1` [Compound C-23, 5-(2-((4-((S)-2-(4-chloro-2-fluorophenyl)-2-methylbenzo[d][1,3]dioxol-4-yl)piperidin-1-yl)methyl)-5-methyl-1-(((S)-oxetan-2-yl)methyl)-1H-imidazol-4-yl)nicotinic acid] came in with an Emax of 106%.
